This note sets out measurements from US6492374B2, “Benzofuran derivatives, their preparation and use” (H. Lundbeck A/S, priority 1998, dated 2002).

The structures appear in SMILES notation. pIC50: −log10 of the molar value. Read-outs that look alike come from different tables or passages of the source.

Experiment [1] deals with serotonin reuptake (3H-5-HT uptake into whole rat brain synaptosomes). In words: Inhibition of 3H-5-HT uptake into rat brain synaptosomes. It is filed as biochemical. Here is the method:
Inhibition of ^3H-5HT Uptake Into Rat Brain Synaptosomes
Using this method, the ability of drugs to inhibit the accumulation of ^3H-5-HT into whole rat brain synaptosomes is determined in vitro.

Experiment [2] deals with T1, cloned human 5-HT1A receptors (Homo sapiens, UniProt P08908).
T1 construct: expressed in transfected cells; host or cells: HeLa cells (HA7), stably transfected; cell homogenate
T1 sequence (P08908 1-422): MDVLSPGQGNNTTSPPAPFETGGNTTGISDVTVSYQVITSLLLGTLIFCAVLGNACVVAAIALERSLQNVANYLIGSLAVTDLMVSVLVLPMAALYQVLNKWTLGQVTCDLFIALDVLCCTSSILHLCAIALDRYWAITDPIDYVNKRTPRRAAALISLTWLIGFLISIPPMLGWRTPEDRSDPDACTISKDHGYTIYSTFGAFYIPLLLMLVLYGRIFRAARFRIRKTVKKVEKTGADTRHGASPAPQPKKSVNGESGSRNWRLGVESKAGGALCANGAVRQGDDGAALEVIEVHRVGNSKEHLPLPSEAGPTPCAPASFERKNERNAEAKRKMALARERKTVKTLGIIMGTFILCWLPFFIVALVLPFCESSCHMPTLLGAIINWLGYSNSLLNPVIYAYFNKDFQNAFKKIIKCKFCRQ
Kind of experiment: Inhibition of 3H-5-CT binding to human 5-HT1A receptors. Here is the method:
Inhibition of ^3H-5CT Binding to Human 5-HT1A Receptors
Human 5-HT1A receptors (40 μg of cell homogenate) were incubated for 15 minutes at 37° C. in 50 mM Tris buffer at pH 7.7 in the presence of ^3H-5-CT. Non-specific binding was determined by including 10 μM of metergoline. The reaction was terminated by rapid filtration through Unifilter GF/B filters on a Tomtec Cell Harvester. Filters were counted in a Packard Top Counter.

The mark [3] stands for this setting: cloned human 5-HT1A receptors expressed in HeLa cells (HA7).

Take `CCN(CCCC1(c2ccc(F)cc2)OCc2cc(C#N)ccc21)CCc1c[nH]c2c(F)cccc12` (stereo not shown) [Compound 12k]: the pIC50 is 8.08 in experiment [1] and 8.44 in experiment [2] (setting [3]).

On to `CCN(CCCC1(c2ccc(F)cc2)OCc2cc(C#N)ccc21)CCc1c[nH]c2ccc(I)cc12` (stereo not shown) [Compound 12ae], for which the “Inhibition of serotonin reuptake % inhibition at 100 nM” value in experiment [1] is on record as 49% inh. at 100 nM. In addition, the negative logarithm of the IC50 (pIC50) in experiment [2] (setting [3]) was 7.96.

On to `CCN(CCCc1c[nH]c2ccc(C)cc12)CCCC1(c2ccc(F)cc2)OCc2cc(C#N)ccc21` (stereo not shown) [Compound 12o, 1-[3-[Ethyl[3-(5-methyl-1H-indol-3-yl)propyl]amino]propyl]-1-(4-fluorophenyl)-1,3-dihydroisobenzofuran-5-carbonitrile], for which the “Inhibition of serotonin reuptake % inhibition at 100 nM” value in experiment [1] was 49% inh. at 100 nM. Besides, the pIC50 in experiment [2] (setting [3]) is 8.21.

On to `CCN(CCCC1(c2ccc(F)cc2)OCc2cc(C#N)ccc21)CCc1c[nH]c2c(F)cc(F)cc12` (stereo not shown) [Compound 12u, 1-[3-[[2-(5,7-Difluoro-1H-indol-3-yl)ethyl]ethylamino]propyl]-1-(4-fluorophenyl)-1,3-dihydroisobenzofuran-5-carbonitrile], for which the negative logarithm of the IC50 (pIC50) in experiment [1] was 7.66; in experiment [2] (setting [3]), 8.05.

`CN(CCCc1c[nH]c2ccc(F)cc12)CCCC1(c2ccc(F)cc2)OCc2cc(C#N)ccc21` (stereo not shown) [Compound 12i, 1-[3-[[3-(5-Fluoro-1H-indol-3-yl)propyl]methylamino]propyl]-1-(4-fluorophenyl)-1,3-dihydroisobenzofuran-5-carbonitrile]: the pIC50 in experiment [1] is 7.70; in experiment [2] (setting [3]) it was 7.57.

With `CN(CCCc1c[nH]c2ccccc12)CCC[C@@]1(c2ccc(F)cc2)OCc2cc(C#N)ccc21` [Compound 2f, (S)-1-[3-[[3-(1H-Indol-3-yl)propyl]methylamino]propyl]-1-(4-fluorophenyl)-1,3-dihydroisobenzofuran-5-carbonitrile], the negative-log IC50 (pIC50) in experiment [1] is 7.85; in experiment [2] (setting [3]), 8.07.

Regarding `CCN(CCCc1c[nH]c2ccc(F)cc12)CCCC1(c2ccc(F)cc2)OCc2cc(C#N)ccc21` (stereo not shown) [Compound 12q, 1-[3-[Ethyl[3-(5-fluoro-1H-indol-3-yl)propyl]amino]propyl]-1-(4-fluorophenyl)-1,3-dihydroisobenzofuran-5carbonitrile], the pIC50 was 8.20 in experiment [1] and 7.92 in experiment [2] (setting [3]).

For the compound `C=CCN(CCCOc1cccc(OC)c1)CCCC1(c2ccc(F)cc2)OCc2cc(C#N)ccc21` (stereo not shown) [Compound 4p], the “Inhibition of serotonin reuptake % inhibition at 100 nM” value in experiment [1] stood at 6% inh. at 100 nM. Further, the pIC50 in experiment [2] (setting [3]) was 7.72.

As to `C=CCN(CCCC1(c2ccc(F)cc2)OCc2cc(C#N)ccc21)CCOc1ccccc1` (stereo not shown) [Compound 4i, 1-(4-Fluorophenyl)-1-[3-[[2-phenoxyethyl](prop-2-en-1-yl)amino]propyl]-1,3-dihydroisobenzofuran-5carbonitrile], in experiment [1], the “Inhibition of serotonin reuptake % inhibition at 100 nM” value was found to be 26% inh. at 100 nM. Further, the pIC50 in experiment [2] (setting [3]) was 8.72.

Turning to `CCN(CCCC1(c2ccc(F)cc2)OCc2cc(C#N)ccc21)CCc1c[nH]c2ccc(F)cc12` (stereo not shown) [Compound 12j, 1-[3-[Ethyl[2-(5-fluoro-1H-indol-3-yl)ethyl]amino]propyl]-1-(4fluorophenyl)-1,3-dihydroisobenzofuran-5-carbonitrile], the pIC50 is 7.85 in experiment [1] and 8.10 in experiment [2] (setting [3]).

As for `COc1ccccc1CCCN(C)CCCC1(c2ccc(F)cc2)OCc2cc(C#N)ccc21` (stereo not shown) [Compound 4j, 1-(4Fluorophenyl)-1-[3-[[3-(2-methoxyphenyl)propyl]methylamino]propyl]-1,3-dihydroisobenzofuran-5-carbonitrile], the negative logarithm of the IC50 (pIC50) is 7.11 in experiment [1] and 8.21 in experiment [2] (setting [3]).

As for `CN(CCCc1cccc2c1OCCO2)CCCC1(c2ccc(F)cc2)OCc2ccccc21` (stereo not shown) [Compound 2j, 5-[3-[[3-[1-(4-Fluorophenyl)-1,3-dihydroisobenzofuran-1-yl]propyl]methylamino]propyl]-1,4benzodioxane], the pIC50 was 8.01 in experiment [1] and 7.39 in experiment [2] (setting [3]).

Regarding `CCN(CCCc1c[nH]c2ccc(I)cc12)CCCC1(c2ccc(F)cc2)OCc2cc(C#N)ccc21` (stereo not shown) [Compound 12af, 1-[3-[Ethyl[3-(5-iodo-1H-indol-3-yl)propyl]amino]propyl]-1-(4-fluorophenyl)-1,3-dihydroisobenzofuran-5-carbonitrile], the “Inhibition of serotonin reuptake % inhibition at 100 nM” value in experiment [1] was 38% inh. at 100 nM. The compound further gave a pIC50 in experiment [2] (setting [3]) of 7.51.

Turning to `CN(CCCCc1c[nH]c2ccccc12)CCCC1(c2ccccc2)OCc2ccccc21` (stereo not shown) [Compound 2e, 1-[3-[[4-(1H-Indol-3-yl)butyl]methylamino]propyl]1-phenyl-1,3-dihydroisobenzofuran], the negative-log IC50 (pIC50) in experiment [1] was 7.82; in experiment [2] (setting [3]) it was 7.42.

In the case of `COc1cccc(CCN(C)CCCC2(c3ccc(F)cc3)OCc3cc(C#N)ccc32)c1` (stereo not shown) [Compound 4b, 1-(4-Fluorophenyl)-1-[3-[[2-(3-methoxyphenyl)ethyl]methylamino]propyl]-1,3-dihydroisobenzofuran-5-carbonitrile], the “Inhibition of serotonin reuptake % inhibition at 100 nM” value in experiment [1] was determined as 59% inh. at 100 nM. For the same compound, in experiment [2] (setting [3]), the negative-log IC50 (pIC50) was 7.20.

On to `CN(CCCC1(c2ccc(F)cc2)OCc2cc(C#N)ccc21)CCc1c[nH]c2ccccc12` (stereo not shown) [Compound 4a, 1-[3-[[2-(1H-Indol-3-yl)ethyl]methylamino]propyl]-1-(4-fluorophenyl)-1,3-dihydroisobenzofuran-5-carbonitrile], for which the negative logarithm of the IC50 (pIC50) in experiment [1] was 7.27; in experiment [2] (setting [3]) it was 7.64.

Regarding `C=CCN(CCCc1ccccc1OC)CCCC1(c2ccc(F)cc2)OCc2cc(C#N)ccc21` (stereo not shown) [Compound 4k, 1-(4-Fluorophenyl)-1-[3-[[3-(2-methoxyphenyl)propyl](prop-2-en-1-yl)amino]propyl]-1,3-dihydroisobenzofuran-5-carbonitrile], the results for the pIC50 in experiment [1] and in experiment [2] (setting [3]) were 7.00 and 9.38, respectively.

Consider `CN(CCCc1c[nH]c2c(F)cccc12)CCCC1(c2ccc(F)cc2)OCc2cc(F)ccc21` (stereo not shown) [Compound 12d, 5-Fluoro-1-[3-[[3-(7-fluoro-1H-indol-3-yl)propyl]methylamino]propyl]-1-(4-fluorophenyl)-1,3dihydroisobenzofuran], for which the pIC50 in experiment [1] was 7.92; in experiment [2] (setting [3]), 7.51.

`C=CCN(CCCC1(c2ccc(F)cc2)OCc2cc(C#N)ccc21)CCc1c[nH]c2ccccc12` (stereo not shown) [Compound 4h, 1-[3-[[2-(1H-Indolyl-3-yl)ethyl](prop-2-en-1-yl)amino]propyl]-1-(4-fluorophenyl) 1,3-dihydroisobenzofuran-5carbonitrile]: the pIC50 in experiment [1] was 7.16; in experiment [2] (setting [3]), 8.49.

In the case of `COc1ccccc1OCCN(C)CCCC1(c2ccc(F)cc2)OCc2cc(C#N)ccc21` (stereo not shown) [Compound 2b, 1-(4-Fluorophenyl)-1-[3-[[2-(2-methoxyphenoxy)ethyl]methylamino]propyl]-1,3-dihydroisobenzofuran-5-carbonitrile], the results for the pIC50 in experiment [1] and in experiment [2] (setting [3]) were 7.40 and 8.19, respectively.

Consider `CN(CCCc1c[nH]c2ccccc12)CCCC1(c2ccccc2)OCc2ccccc21` (stereo not shown) [Compound 2g, 1-[3-[[3-(1H-Indol-3-yl)propyl]methylamino]propyl]-1-phenyl-1,3-dihydroisobenzofuran], for which the pIC50 in experiment [1] was 7.70; in experiment [2] (setting [3]), 7.40.

For the compound `CN(CCCc1c[nH]c2ccccc12)CCCC1(c2ccc(F)cc2)OCc2cc(C#N)ccc21` (stereo not shown) [Compound 4s, 1-[3-[[3-(1H-Indol-3-yl)propyl]methylamino]propyl]-1-(4-fluorophenyl)-1,3-dihydroisobenzofuran-5-carbonitrile], the negative-log IC50 (pIC50) was 7.46 in experiment [1] and 7.52 in experiment [2] (setting [3]).

`COc1ccc(OC)c(CCN(C)CCCC2(c3ccc(F)cc3)OCc3cc(C#N)ccc32)c1` (stereo not shown) [Compound 4e, 1-[3-[[2-(2,5-Dimethoxyphenyl)ethyl]methylamino]propyl]-1-(4-fluorophenyl)-1,3-dihydroisobenzofuran-5-carbonitrile]: the pIC50 in experiment [1] was 6.80; in experiment [2], 7.77.

With `C=CCN(CCCC1(c2ccc(F)cc2)OCc2cc(C#N)ccc21)CCc1c[nH]c2c(F)cccc12` (stereo not shown) [Compound 13c, 1-[3-[[2-(7-Fluoro-1H-indol-3-yl)ethyl](prop-2-en-1-yl)amino]propyl]-1-(4-fluorophenyl)-1,3-dihydroisobenzofuran-5-carbonitrile], the negative logarithm of the IC50 (pIC50) is 7.92 in experiment [1] and 8.02 in experiment [2] (setting [3]).

For the compound `Cc1ccc2[nH]cc(CCCN(C)CCCC3(c4ccc(F)cc4)OCc4cc(F)ccc43)c2c1` (stereo not shown) [Compound 12c, 5-Fluoro-1-[3-[[3-(5-methyl-1H-indol-3-yl)propyl]methylamino]propyl]-1-(4-fluorophenyl)-1,3-dihydroisobenzofuran], the values for the pIC50 in experiment [1] and in experiment [2] (setting [3]) were 7.77 and 7.72, respectively.

For the compound `CCN(CCCc1c[nH]c2ccc(Br)cc12)CCCC1(c2ccc(F)cc2)OCc2cc(C#N)ccc21` (stereo not shown) [Compound 12ad, 1-(3-[[3-(5-Bromo-1H-indol-3-yl)propyl]ethylamino]propyl]-1-(4fluorophenyl)-1,3-dihydroisobenzofuran-5-carbonitrile], the “Inhibition of serotonin reuptake % inhibition at 100 nM” value in experiment [1] was found to be 35% inh. at 100 nM. In experiment [2] (setting [3]), this compound had a pIC50 of 7.68.
